In patent US20050171169A1, “Combination chemotherapy for helminth infections” (priority 2004, published 2005):

Experiments:
[1] = system: E. multilocularis metacestodes; test: Secondary infection with E. multilocularis metacestodes, chemotherapy starting at the timepoint of infection (Example 1); type: in vivo, Echinococcus multilocularis; settings: Balb/c mice, i.p. 20 metacestodes; daily intragastric treatment from day of infection for 35 days; necropsy day 36; CMC group 0.23±0.05 g
Description: (§1) E. multilocularis metacestodes (isolate IM280) were maintained by serial transplantation passages through intraperitoneal (i.p.) injection in gerbils (Meriones unguiculatus). Animals were sacrificed at four to ten weeks p.i, and the parasite material was removed from the peritoneal cavity under aseptic conditions, placed into Hanks balanced salt solution (HBSS), and washed several times. Vesicle suspensions were prepared as described in Hemphill, A., and B. Gottstein. 1995. Immunology and morphology studies on the proliferation of in vitro cultivated Echinococcus multilocularis metacestodes. Parasitol. Res. 81: 605-614. Vesicles were washed once in HBSS, and the number of intact metacestodes in 50 ml HBSS was determined microscopically. The metacestode suspension was adjusted to 20 intact vesicles/100 ml HBSS, and was used for infection experiments immediately.
Six week old Balb/c mice were housed in a temperature-controlled light-cycle room with food and water ad libitum. The mice were separated into experimental groups of 10 animals each. Drug suspensions (30 mg/ml NTZ, 10 mg/ml ABZ, and 30 mg NTZ plus 10 mg ABZ/ml, respectively) were prepared in carboxymethylcellulose (CMC) 0.5% (w/v) in water. […]
(§2) For assessments of secondary infections, parasite tissue was carefully removed from the peritoneal cavity, and the parasite weight was determined as described in: Dai, W. J., and B. Gottstein. […]

[2] = system: E. multilocularis metacestodes; test: Secondary infection with E. multilocularis metacestodes, chemotherapy starting at two months post infection (Example 2); type: in vivo, Echinococcus multilocularis; settings: Balb/c mice; treatment initiated 2 months p.i., daily for 35 days; vs CMC control (4.3±0.9 g)
Description: as §1, with “The metacestode suspension was adjusted to 20 intact vesicles/100 ml HBSS, and was used for infection experiments immediately.” left out
as §2
(§3) For serological and lymphocyte proliferation assays, blood was taken from euthanized mice by heart puncture, and total IgG-, as well as IgG1- and IgG2a-isotype levels against crude E. multilocularis extract (Faub-antigen) and vesicle fluid antigen, were determined according to: Dai, W. J., A. Hemphill, A. Waldvogel, K. Ingold, P. Deplazes, H. Mossmann, and B. Gottstein. […]

[3] = Single-dose pharmacokinetic study, serum levels of TIZ, TIZ-gluc and ABZSO (Example 4); type: in vivo; settings: non-infected Balb/c mice; single dose 1 mg ABZ or 3 mg/1 mg NTZ/ABZ
Description: A total of 120 6-week old non-infected Balb/c mice were divided into three treatment groups: group 1 (NTZ—30 mice), group 2 (ABZ—30 mice), group 3 (NTZ/ABZ—60 mice). They received a single dose of 3 mg NTZ (group 1), 1 mg ABZ (group 2) and 3 mg/1 mg of NTZ/ABZ (group 3) in a volume of 100 μl suspended in 0.5% CMC. At defined time points following inoculation, (0, 1, 2, 4, 6, 8, 12, 24 and 48 h), blood samples were obtained from three mice/group, and blood levels of tizoxanide (TIZ), tizoxanide-glucuronide (TIZ-gluc) and ABZSO were assayed.
TIZ and Tiz-gluc were extracted from mouse serum samples using protein precipitation with acetonitrile. The supernatant was evaporated and reconstituted in injection solvent before injection. Chromatographic separation was achieved on a C18 column (5 pm 70×2 mm). Detection was by a mass spectrometer with an ion spray ionization source. Negative ions were detected in multiple reaction monitoring mode (Q1=264 m/z and Q3=216.9 m/z for TIZ, and Q1=439.9 m/z and Q3=263.9 m/z for TIZ-gluc). The lower limits of quantitation were 0.05 μg/ml and 0.2 μg/ml for TIZ and TIZ-gluc, respectively. […]

[4] = mice and humans, literature; cited from earlier work
[5] = system: E. multilocularis metacestode tissue; test: Histology and transmission electron microscopy of metacestode tissue from treated mice (Example 5); type: in vivo, Echinococcus multilocularis; settings: for Ultrastructural alterations of metacestode tissue (TEM): tissue from treated infected mice vs CMC-control; for Histology of metacestode tissue: tissue from treated infected mice vs control
Description: For histological and transmission electron microscopy (TEM) analysis, tissue samples were fixed in 3% paraformaldehyde/1% glutaraldehyde in 100 mM sodium cacodylate buffer (pH 7.2) for 24 h at 4° C., and postfixed in 2% OsO4 in cacodylate buffer for 4 h at room temperature. The samples were then processed and embedded in Epon 812 epoxy resin as described previously in: Hemphill, A., and S. L. Croft. 1997. Electron microscopy in Parasitology. In: p. 227-268. M. Rogan (ed), Analytical Parasitology, Springer Verlag, Heidelberg. Sections of […] in thickness were used for histological examination, and ultrathin sections 80-100 nm for transmission electron microscopy. Sections were loaded onto 300-mesh copper grids, and were contrasted with uranyl acetate and lead citrate as described previously in: Hemphill, A., and S. L. Croft. 1997. Electron microscopy in Parasitology. In: p. 227-268. M. Rogan (ed), Analytical Parasitology, Springer Verlag, Heidelberg. Specimens were viewed on a Phillips 300 transmission electron microscope operating at 60 kV.
Because it was not possible to investigate alterations of the actual parasite tissue on the germinal layer using histology, transmission electron microscopy was performed on sections obtained from the same tissue blocks. For evaluating the ultrastructural changes occurring during drug treatments, it is important to note that the process of tissue damage was not uniform, as it progressed at different rates in different metacestode vesicles. However, within a single metacestode, damage was rather homogenous. Therefore, a large number of different metacestodes, and as a consequence, different areas of a tissue block, were investigated in order to show a complete picture of the tissue alterations induced by ABZ, NTZ, and NTZ/ABZ-treatments.

[6] = system: E. multilocularis eggs; test: Primary infection with E. multilocularis eggs, chemotherapy starting at two months post infection (Example 3); type: in vivo, Echinococcus multilocularis; settings: Balb/c mice, 2000 eggs intragastric; NTZ from 2 months p.i., daily for 35 days; infection control 5 lesions/mouse
Excerpt: Infective E. multilocularis eggs were isolated from fox intestinal tissue as described (Pater, C., V. Muller, S. Harraga, M. Liance, V. Godot, J. P. Carbillet, D. Meillet, T. Romig, and D. A. Vuitton. 1998). Intestinal and systemic humoral immunological events in the susceptible Balb/C mouse strain after oral administration of Echinococcus multilocularis eggs. Parasite Immunol. 20: 623-9). The infectivity of this batch of eggs was pre-determined by titration-infection experiments in mice, and an infection dose of 2000 eggs was used.
Six week old Balb/c mice were housed in a temperature-controlled light-cycle room with food and water ad libitum. The mice were separated into experimental groups of 10 animals each. […]
For analysis of primary infection, the entire liver was removed, and lesion numbers were determined as described: Siles-Lucas, M., M. Merli, U. Mackenstedt and B. Gottstein 2003. […]
as §3

[7] = Oral absorption of NTZ (general statement)
[8] = Solubility of NTZ in solvents; type: physicochemical

With `CCCSc1ccc2nc(NC(=O)OC)[nH]c2c1` [ABZ] the Parasite weight [1] was 0.08 ± 0.01 g, the “Reduction in parasite weight (in words)” value [2] was “significant reduction in parasite weight” and the “ABZSO serum concentration at 12 h” value [3] was “zero”. The “Time after which ABZSO disappears following ABZ uptake” value [4] was no more than 10 h, the “Ultrastructural alterations of metacestode tissue (TEM)” value [5] was “parasite tissue was mostly reduced to only the tegument” and the “Histology of metacestode tissue” value [5] was “limited destructive effect”.
With `CC(=O)Oc1ccccc1C(=O)Nc1ncc([N+](=O)[O-])s1` [NTZ, 2-(acetolyloxy)-N-(5-nitro-2-thiazolyl)benzamide] the Parasite weight [1] was 0.17 ± 0.05 g, the “Number of liver lesions (means)” value [6] was 2.2 lesions/mouse and the “Reduction in parasite weight (in words)” value [2] was “not statistically significant”. The Oral absorption [7] was “easily absorbed orally”, the solubility ([8]; DMSO, organic solvent or mixture) was no less than 2000 µg/mL and the “Solubility in acetic acid” value ([8]; acetic acid) was “poorly soluble”. The Solubility in acetone ([8]; acetone) was “fairly soluble”, the Solubility in chloroform ([8]; chloroform) was “poorly soluble” and the Solubility in dioxane ([8]; dioxane) was “fairly soluble”. The Solubility in ethanol ([8]; ethanol) was “poorly soluble”, the Solubility in ether ([8]; ether) was “very poorly soluble” and the “Solubility in methyl benzene” value ([8]; methyl benzene) was “very poorly soluble”. The Solubility in pyridine ([8]; pyridine) was “easily soluble”, the Solubility in water ([8]; water) was “very poorly soluble” and the “Ultrastructural alterations of metacestode tissue (TEM)” value [5] was “rather heterogeneous morphological features”. The “Histology of metacestode tissue” value [5] was “limited destructive effect”.
